Where “and” joins values, the source holds several entries; their conditions need not be identical. Equal entries are not always repeated. Where two headings read alike, the source gives them in different places.
How the values were obtained:
[1] = biological target: M. tuberculosis MmpL3 (MtMmpL3) (Mycobacterium tuberculosis, UniProt P9WJV5); test: Surface plasmon resonance binding to MmpL3; settings: for koff: 1:1 Langmuir binding model
[2] = test system: M. tuberculosis H37Rv; test: M. tuberculosis H37Rv growth inhibition; type: cell-based, Mycobacterium tuberculosis
[3] = test system: E. coli; test: E. coli growth inhibition; type: cell-based, Escherichia coli; settings: for IC50: read-out: Ec IC50
[4] = test system: Plasmodium falciparum asexual blood stages; test: P. falciparum asexual blood stage; type: cell-based; settings: read-out: PfABS IC50 (μM ± S.E.); asexual blood stages
[5] = test system: L. mexicana promastigotes; test: L. mexicana promastigote growth inhibition; type: cell-based, Leishmania mexicana; settings: for IC50: read-out: L. mexicana IC50, promastigotes
[6] = test system: HepG2 (human hepatocellular carcinoma) cells; test: HepG2 cell line viability
[7] = test system: T. brucei bloodstream forms; test: T. brucei bloodstream form growth inhibition; type: cell-based, Trypanosoma brucei; settings: read-out: T. brucei IC50; bloodstream forms
[8] = test system: M. abscessus smooth variant; test: microbe, parasite or virus in culture; type: cell-based
[9] = test system: T. cruzi Dm28c intracellular amastigotes; test: T. cruzi intracellular amastigote inhibition; type: cell-based, Trypanosoma cruzi; settings: read-out: T. cruzi IC50 (PAR); intracellular amastigotes in U2OS host cells
[10] = DSC of DMPC bilayers with inhibitor; type: physicochemical; settings: for Tm (main transition) / ΔH / ΔT1/2: 10 wt % inhibitor, PBS pH 7.4, heating
[11] = test system: M. smegmatis; test: M. smegmatis cell growth inhibition; type: cell-based, Mycobacterium smegmatis; settings: read-out: Ms IC50; M. smegmatis
[12] = test system: M. abscessus rough variant; test: microbe, parasite or virus in culture; type: cell-based
[13] = DSC of DSPG bilayers with inhibitor; type: physicochemical; settings: for Tm (main transition) / ΔH / ΔT1/2: 10 wt % inhibitor, PBS pH 7.4, heating; for Broadening of main transition peak ΔΤ1/2 compared to pure DSPG / Decrease of Tm compared to DSPG alone: heating
[14] = test system: T. cruzi Dm28c epimastigotes; test: T. cruzi epimastigote growth inhibition; type: cell-based, Trypanosoma cruzi; settings: read-out: T. cruzi IC50 (EPI); epimastigotes
[15] = test system: M. tuberculosis HN878; test: M. tuberculosis HN878 growth inhibition; type: cell-based, Mycobacterium tuberculosis; settings: for IC50: read-out: Mtb HN878 IC50, dose-response curves; for Mtb HN878 MIC: visual inspection
[16] = test system: M. tuberculosis Erdman; test: M. tuberculosis Erdman growth inhibition; type: cell-based, Mycobacterium tuberculosis
[17] = test system: U2OS host cells; test: U2OS host cell growth inhibition; settings: read-out: T. cruzi CC50 (U20S)
[18] = test system: L. donovani promastigotes; test: L. donovani promastigote growth inhibition; type: cell-based, Leishmania donovani; settings: read-out: L. donovani IC50; promastigotes
[19] = test system: Bacillus subtilis; test: B. subtilis growth inhibition; type: cell-based; settings: read-out: Bs IC50
[20] = Human liver microsome stability; settings: human liver microsomes
[21] = Mice liver microsome stability; settings: mice microsomes
[22] = Rat liver microsome stability; settings: rat liver microsomes
[23] = read-out: KD, 1:1 model, 1:1 binding model, from ratio of rate constants
[24] = read-out: KD, 2-state, two-state model, from rate constants

M. tuberculosis MmpL3 (MtMmpL3), sequence (P9WJV5 whole entry): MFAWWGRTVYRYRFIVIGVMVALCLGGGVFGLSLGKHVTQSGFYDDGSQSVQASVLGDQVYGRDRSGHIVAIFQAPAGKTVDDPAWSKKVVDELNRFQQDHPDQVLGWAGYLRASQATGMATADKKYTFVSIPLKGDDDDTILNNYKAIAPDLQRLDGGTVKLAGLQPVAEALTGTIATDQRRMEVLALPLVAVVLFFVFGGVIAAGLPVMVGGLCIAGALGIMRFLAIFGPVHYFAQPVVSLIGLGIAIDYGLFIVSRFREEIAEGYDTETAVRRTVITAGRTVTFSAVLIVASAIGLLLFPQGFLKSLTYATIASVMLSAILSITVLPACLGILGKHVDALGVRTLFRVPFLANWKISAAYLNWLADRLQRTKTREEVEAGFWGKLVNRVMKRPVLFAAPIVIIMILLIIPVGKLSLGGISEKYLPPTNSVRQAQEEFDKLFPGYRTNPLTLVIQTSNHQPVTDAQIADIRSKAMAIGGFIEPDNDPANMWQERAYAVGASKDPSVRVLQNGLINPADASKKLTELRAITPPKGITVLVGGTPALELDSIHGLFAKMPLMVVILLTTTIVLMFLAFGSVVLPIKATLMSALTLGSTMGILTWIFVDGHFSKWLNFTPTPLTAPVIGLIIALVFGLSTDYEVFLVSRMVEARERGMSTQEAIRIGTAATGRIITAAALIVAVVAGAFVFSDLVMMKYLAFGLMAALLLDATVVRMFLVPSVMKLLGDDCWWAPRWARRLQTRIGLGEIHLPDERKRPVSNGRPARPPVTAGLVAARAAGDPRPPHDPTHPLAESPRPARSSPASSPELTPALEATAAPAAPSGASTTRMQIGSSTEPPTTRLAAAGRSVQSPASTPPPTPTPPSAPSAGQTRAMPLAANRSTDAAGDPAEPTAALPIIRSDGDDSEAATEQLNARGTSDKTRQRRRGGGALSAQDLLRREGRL

CCCC1(NCCNCC=C(C)CCC=C(C)C)C2CC3CC(C2)CC1C3 (stereo not shown) [Compound 8d, N-(3,7-dimethylocta-2,6-dien-1-yl)-N´-(2-propyladamantan-2-yl)ethane-1,2-diamine]
koff [1]: 0.5403 s⁻¹
Kd [1, 23]: 91 µM
Kd [1, 24]: 106 µM
ka1 ([1]; two-state model): 7325 M⁻¹ s⁻¹
ka2 ([1]; two-state model): 0.00968 s⁻¹
kd1 ([1]; two-state model): 0.9488 s⁻¹
kd2 ([1]; two-state model): 0.04246 s⁻¹
Mtb H37Rv MIC [2]: 13 µM
IC50 [3]: 7.6 µM
IC50 [4]: 0.53 ± 0.22 µM
Less active than 8b/SQ109, L. mexicana [5]: ~ 4 fold
IC50 [5]: 1.94 µM and 1.9 µM
HepG2 % viability @ 20 μM [6]: 100%
IC50 [7]: 0.88 ± 0.2 µM
Ma(S) MIC [8]: 10 µM
IC50 [9]: 0.6 ± 0.5 µM
Tm (main transition) [10]: 17.5 °C
ΔH [10]: 5.4 kcal/mol
ΔT1/2 [10]: 2.2 °C
Decrease of Tm compared to DMPC without inhibitor ([10]; heating): ~6 °C
IC50 [11]: 4.3 ± 0.8 µM
Ma(R) MIC [12]: 10 µM
Tm (main transition) [13]: 50.0 °C
ΔH [13]: 11.5 kcal/mol
ΔT1/2 [13]: 1.1 °C
Broadening of main transition peak ΔΤ1/2 compared to pure DSPG [13]: 0.2–1.6 °C
Decrease of Tm compared to DSPG alone [13]: 3–4 °C
IC50 [14]: 2.1 ± 0.9 µM
IC50 [15]: 2.6 ± 1 µM
Mtb HN878 MIC [15]: 3 µM
Mtb Erdman MIC [16]: 13 µM
CC50 [17]: 1.6 ± 0.1 µM
IC50 [18]: 2 ± 0.2 µM

CCCCC1(NCCNCC=C(C)CCC=C(C)C)C2CC3CC(C2)CC1C3 (stereo not shown) [Compound 8e, N-(3,7-dimethylocta-2,6-dien-1-yl)-N´-(2-butyladamantan-2-yl)ethane-1,2-diamine]
koff [1]: 0.3888 s⁻¹
Kd [1, 23]: 97 µM
Kd [1, 24]: 108 µM
ka1 ([1]; two-state model): 5151 M⁻¹ s⁻¹
ka2 ([1]; two-state model): 0.009897 s⁻¹
kd1 ([1]; two-state model): 0.7008 s⁻¹
kd2 ([1]; two-state model): 0.03763 s⁻¹
Mtb H37Rv MIC [2]: 12.9 µM
IC50 [3]: 7.8 µM
IC50 [4]: 0.27 ± 0.04 µM
IC50 [19]: 0.54 µM
HepG2 % viability @ 2 μM ([6]; 2 μM): 83%
HepG2 % viability @ 20 μM [6]: 50%
IC50 [7]: 0.37 ± 0.02 µM
Activity against M. abscessus higher than SQ109 [8]: 4–8 fold
MIC against M. abscessus [8]: 5.8 to 6.2 µM
Ma(S) MIC [8]: 6.2 µM
IC50 [9]: 0.84 ± 0.5 µM
Tm (main transition) [10]: 15.7 °C
ΔH [10]: 5.83 kcal/mol
ΔT1/2 [10]: 2.2 °C
Decrease of Tm compared to DMPC without inhibitor ([10]; heating): ~7.8 °C
IC50 [11]: 2.5 µM
Ma(R) MIC [12]: 6.2 µM
Tm (main transition) [13]: 49.0 °C
ΔH [13]: 9.2 kcal/mol
ΔT1/2 [13]: 3.6 °C
Broadening of main transition peak ΔΤ1/2 compared to pure DSPG [13]: 2.7 °C
Decrease of Tm compared to DSPG alone [13]: ~ 5 °C
IC50 [14]: 2.5 ± 1 µM
IC50 [15]: 2.5 ± 0.2 µM
Mtb HN878 MIC [15]: 3 µM
Mtb Erdman MIC [16]: 9.7 µM
CC50 [17]: 1.7 ± 1 µM
IC50 [18]: 4 ± 0.4 µM

CC(C)=CCCC(C)=CCNCCNC1(Cc2ccccc2)C2CC3CC(C2)CC1C3 (stereo not shown) [Compound 8g, N-(3,7-dimethylocta-2,6-dien-1-yl)-N´-(2-benzyladamantan-2-yl)ethane-1,2-diamine]
koff [1]: 0.3999 s⁻¹
Kd [1, 23]: 69 µM
Kd [1, 24]: 74 µM
ka1 ([1]; two-state model): 6462 M⁻¹ s⁻¹
ka2 ([1]; two-state model): 0.006528 s⁻¹
kd1 ([1]; two-state model): 0.5715 s⁻¹
kd2 ([1]; two-state model): 0.03248 s⁻¹
Mtb H37Rv MIC [2]: 6.1 µM
IC50 [3]: 130 µM
IC50 [19]: 0.59 µM
HepG2 % viability @ 20 μM [6]: 100%
IC50 [7]: 0.85 ± 0.09 µM
Activity against M. abscessus higher than SQ109 [8]: 4–8 fold
MIC against M. abscessus [8]: 5.8 to 6.2 µM
Ma(S) MIC [8]: 5.8 µM
IC50 [9]: 0.92 ± 0.06 µM
Tm (main transition) [10]: 16.6 °C
ΔH [10]: 5.16 kcal/mol
ΔT1/2 [10]: 10 °C
Broadening of main transition peak ΔΤ1/2 compared to pure DMPC ([10]; heating): 9.6 °C
Decrease of Tm compared to DMPC without inhibitor ([10]; heating): ~6.9 °C
IC50 [11]: 6 µM
Ma(R) MIC [12]: 5.8 µM
Tm (main transition) [13]: 48.0 °C
ΔH [13]: 13.3 kcal/mol
ΔT1/2 [13]: 1.7 °C
Broadening of main transition peak ΔΤ1/2 compared to pure DSPG [13]: 0.2–1.6 °C
Decrease of Tm compared to DSPG alone [13]: ~ 5 °C
IC50 [14]: 6.6 ± 1 µM
Less activity than SQ109 against M. tuberculosis ([15]; MtbHN878, MtErdman and MtH37Rv): 2–4 fold
IC50 [15]: 2 ± 0.5 µM
Mtb HN878 MIC [15]: 1.6 µM
Mtb Erdman MIC [16]: 6.1 µM
CC50 [17]: 2 ± 0.4 µM
IC50 [18]: 6.1 ± 0.06 µM

CC(C)=CCCC(C)=CCNCCNC1(c2ccccc2)C2CC3CC(C2)CC1C3 (stereo not shown) [Compound 8h, N-(3,7-dimethylocta-2,6-dien-1-yl)-N´-(2-phenyl-adamantan-2-yl)ethane-1,2-diamine]
koff [1]: 0.465 s⁻¹
Kd [1, 23]: 115 µM
Kd [1, 24]: 136 µM
ka1 ([1]; two-state model): 25900 M⁻¹ s⁻¹
ka2 ([1]; two-state model): 0.00526 s⁻¹
kd1 ([1]; two-state model): 4.085 s⁻¹
kd2 ([1]; two-state model): 0.03247 s⁻¹
Mtb H37Rv MIC [2]: 13 µM
Ec IC50 [3]: No inhibition
IC50 [4]: 0.42 ± 0.09 µM
Intrinsic clearance rate (CLint) relative to SQ109 [20]: about twice as large
Metabolism relative to SQ109 [20]: more rapidly metabolized
HepG2 % viability @ 20 μM [6]: 100%
IC50 [7]: 1.3 ± 0.3 µM
Ma(S) MIC [8]: 12 µM
% remanent at 60 minutes relative to SQ109 [21]: same % remanent as SQ109 (8a)
Intrinsic clearance rate (CLint) relative to SQ109 [21]: essentially the same
Intrinsic clearance rate (CLint) relative to SQ109 [22]: about twice as large
Metabolism relative to SQ109 [22]: more rapidly metabolized
IC50 [9]: 0.6 ± 0.04 µM
Tm (main transition) [10]: 14.7 °C
ΔH [10]: 7.12 kcal/mol
ΔT1/2 [10]: 2.7 °C
Decrease of Tm compared to DMPC without inhibitor ([10]; heating): ~8.8 °C
IC50 [11]: 5.8 µM
Ma(R) MIC [12]: 6 µM
Tm (main transition) [13]: 48.6 °C
ΔH [13]: 13.2 kcal/mol
ΔT1/2 [13]: 5.3 °C
Broadening of main transition peak ΔΤ1/2 compared to pure DSPG [13]: 4.4 °C
Decrease of Tm compared to DSPG alone [13]: ~ 5 °C
IC50 [14]: 7.3 ± 2 µM
IC50 [15]: 2.3 ± 0.2 µM
Mtb HN878 MIC [15]: 1.6 µM
Mtb Erdman MIC [16]: 13 µM
CC50 [17]: 3.5 ± 1 µM
IC50 [18]: 1.4 ± 1 µM

CC(C)=CCCC(C)=CCNCCNC(C)(C)C12CC3CC(CC(C3)C1)C2 [Compound 12, N-(3,7-dimethylocta-2,6-dien-1-yl)-N´-(2-(adamantan-1-yl)propan-2-yl)ethane-1,2-diamine]
koff [1]: 0.6646 s⁻¹
Kd [1, 23]: 106 µM
Kd [1, 24]: 120 µM
ka1 ([1]; two-state model): 7245 M⁻¹ s⁻¹
ka2 ([1]; two-state model): 0.007539 s⁻¹
kd1 ([1]; two-state model): 1.05 s⁻¹
kd2 ([1]; two-state model): 0.03558 s⁻¹
Mtb H37Rv MIC [2]: 13 µM
IC50 [3]: 8.9 µM
IC50 [4]: 0.77 ± 0.1 µM
IC50 [5]: 4.7 ± 0.2 µM
HepG2 % viability @ 20 μM [6]: 100%
IC50 [7]: 1.4 ± 0.03 µM
Ma(S) MIC [8]: 12.9 µM
IC50 [9]: 0.56 ± 0.9 µM
Tm (main transition) [10]: 19.8 °C
ΔH [10]: 4.25 kcal/mol
ΔT1/2 [10]: 4.1 °C
Decrease of Tm compared to DMPC without inhibitor ([10]; heating): 3–4 °C
IC50 [11]: 15 ± 2 µM
Ma(R) MIC [12]: 12.9 µM
Tm (main transition) [13]: 49.8 °C
ΔH [13]: 13.3 kcal/mol
ΔT1/2 [13]: 2.4 °C
Broadening of main transition peak ΔΤ1/2 compared to pure DSPG [13]: 0.2–1.6 °C
Decrease of Tm compared to DSPG alone [13]: 3–4 °C
IC50 [14]: 2.4 ± 0.7 µM
IC50 [15]: 3.4 ± 0.6 µM
Mtb HN878 MIC [15]: 3 µM
Mtb Erdman MIC [16]: 13 µM
CC50 [17]: 1.4 ± 0.2 µM
IC50 [18]: 2.3 ± 0.1 µM
